Data from ChEMBL document CHEMBL3885881, “DrugMatrix”.

Species: Rattus norvegicus
Assay: DrugMatrix - Regimen: Daily Repeat
Assay type: toxicity, organism-based, Sprague-Dawley
Set-up: regimen Daily Repeat, gender Male, age 6-8 weeks
Settings: in vivo, po, route oral GAVAGE; for BASOPHIL / EOSINOPHIL / ERYTHROCYTE COUNT / HEMATOCRIT / HEMOGLOBIN / LEUKOCYTE COUNT / LYMPHOCYTE / MEAN CORPUSCULAR HEMOGLOBIN / MEAN CORPUSCULAR HEMOGLOBIN CONCENTRATION / MEAN CORPUSCULAR VOLUME / MONOCYTE / NEUTROPHIL / NUCLEATED RED BLOOD CELLS / PLATELET COUNT / ABSOLUTE BASOPHIL / ABSOLUTE EOSINOPHIL / ABSOLUTE LYMPHOCYTE / ABSOLUTE MONOCYTE / ABSOLUTE SEGMENTED NEUTROPHIL: tissue Blood; for ALANINE AMINOTRANSFERASE / ALBUMIN / ALKALINE PHOSPHATASE / ASPARTATE AMINOTRANSFERASE / BLOOD UREA NITROGEN / CARBON DIOXIDE / CHLORIDE / CHOLESTEROL / CREATINE PHOSPHOKINASE / CREATININE / GLUCOSE / LACTATE DEHYDROGENASE / LIPASE / PHOSPHORUS / POTASSIUM / SODIUM / TOTAL BILIRUBIN / TOTAL PROTEIN / URIC ACID: tissue Plasma
[1] = 300 mg/kg, 120 h, dose level M2, time 5 day, vehicle 100 % SALINE
[2] = 420 mg/kg, 72 h, dose level High, time 3 day, vehicle 100 % WATER
[3] = 420 mg/kg, 120 h, dose level High, time 5 day, vehicle 100 % WATER
[4] = […], 72 h, dose 2.5 mg/Kg, dose level Low, time 3 day, vehicle 100 % WATER
[5] = […], 120 h, dose 2.5 mg/Kg, dose level Low, time 5 day, vehicle 100 % WATER

CCCc1nn(C)c2c(=O)[nH]c(-c3cc(S(=O)(=O)N4CCN(C)CC4)ccc3OCC)nc12
BASOPHIL [1]: 0% | EOSINOPHIL [1]: 0% | ERYTHROCYTE COUNT [1]: 5.43 x10E6/uL | HEMATOCRIT [1]: 35.43% | HEMOGLOBIN [1]: 14 G/DL | LEUKOCYTE COUNT [1]: 11.23 x10E3/uL | LYMPHOCYTE [1]: 91% | MEAN CORPUSCULAR HEMOGLOBIN [1]: 25.83 pg | MEAN CORPUSCULAR HEMOGLOBIN CONCENTRATION [1]: 39.53 G/DL | MEAN CORPUSCULAR VOLUME [1]: 65.33 fL | MONOCYTE [1]: 0% | NEUTROPHIL [1]: 9% | NUCLEATED RED BLOOD CELLS [1]: 0.67 /100WBC | PLATELET COUNT [1]: 1112.67 x10E3/uL | ALANINE AMINOTRANSFERASE [1]: 45 u/L | ALBUMIN [1]: 4.03 G/DL | ALKALINE PHOSPHATASE [1]: 344 u/L | ASPARTATE AMINOTRANSFERASE [1]: 70.33 u/L | BLOOD UREA NITROGEN [1]: 14.67 mg/dL | CARBON DIOXIDE [1]: 33 mmol/L | CHLORIDE [1]: 100.33 MEQ/L | CHOLESTEROL [1]: 70 mg/dL | CREATINE PHOSPHOKINASE [1]: 212 u/L | CREATININE [1]: 0.31 mg/dL | GLUCOSE [1]: 137.33 mg/dL | LACTATE DEHYDROGENASE [1]: 106 u/L | LIPASE [1]: 11.33 u/L | PHOSPHORUS [1]: 10.77 mg/dL | POTASSIUM [1]: 6.45 MEQ/L | SODIUM [1]: 146.53 MEQ/L | TOTAL BILIRUBIN [1]: 0.2 mg/dL | TOTAL PROTEIN [1]: 5.43 G/DL | URIC ACID [1]: 0.73 mg/dL | ABSOLUTE BASOPHIL [2]: 0 CELLS/uL | ABSOLUTE EOSINOPHIL [2]: 0 CELLS/uL | ABSOLUTE LYMPHOCYTE [2]: 12448.33 CELLS/uL | ABSOLUTE MONOCYTE [2]: 74 CELLS/uL | ABSOLUTE SEGMENTED NEUTROPHIL [2]: 877.67 CELLS/uL | BASOPHIL [2]: 0% | EOSINOPHIL [2]: 0% | ERYTHROCYTE COUNT [2]: 5.64 x10E6/uL | HEMATOCRIT [2]: 35.27% | HEMOGLOBIN [2]: 13.43 G/DL | LEUKOCYTE COUNT [2]: 13.4 x10E3/uL | LYMPHOCYTE [2]: 92.33% | MEAN CORPUSCULAR HEMOGLOBIN [2]: 23.8 pg | MEAN CORPUSCULAR HEMOGLOBIN CONCENTRATION [2]: 38.1 G/DL | MEAN CORPUSCULAR VOLUME [2]: 62.57 fL | MONOCYTE [2]: 0.67% | NEUTROPHIL [2]: 7% | NUCLEATED RED BLOOD CELLS [2]: 0 /100WBC | PLATELET COUNT [2]: 944.33 x10E3/uL | ALANINE AMINOTRANSFERASE [2]: 41.67 u/L | ALBUMIN [2]: 3.77 G/DL | ALKALINE PHOSPHATASE [2]: 304 u/L | ASPARTATE AMINOTRANSFERASE [2]: 72.67 u/L | BLOOD UREA NITROGEN [2]: 16.33 mg/dL | CARBON DIOXIDE [2]: 30.33 mmol/L | CHLORIDE [2]: 102.33 MEQ/L | CHOLESTEROL [2]: 79.67 mg/dL | CREATINE PHOSPHOKINASE [2]: 170 u/L | CREATININE [2]: 0.14 mg/dL | GLUCOSE [2]: 148 mg/dL | LACTATE DEHYDROGENASE [2]: 130.33 u/L | LIPASE [2]: 9.67 u/L | PHOSPHORUS [2]: 8.4 mg/dL | POTASSIUM [2]: 5.71 MEQ/L | SODIUM [2]: 146.4 MEQ/L | TOTAL BILIRUBIN [2]: 0.23 mg/dL | TOTAL PROTEIN [2]: 5.6 G/DL | URIC ACID [2]: 0.5 mg/dL | ABSOLUTE BASOPHIL [3]: 0 CELLS/uL | ABSOLUTE EOSINOPHIL [3]: 0 CELLS/uL | ABSOLUTE LYMPHOCYTE [3]: 8874.67 CELLS/uL | ABSOLUTE MONOCYTE [3]: 36 CELLS/uL | ABSOLUTE SEGMENTED NEUTROPHIL [3]: 756 CELLS/uL | BASOPHIL [3]: 0% | EOSINOPHIL [3]: 0% | ERYTHROCYTE COUNT [3]: 5.05 x10E6/uL | HEMATOCRIT [3]: 32.73% | HEMOGLOBIN [3]: 12.9 G/DL | LEUKOCYTE COUNT [3]: 9.67 x10E3/uL | LYMPHOCYTE [3]: 91.67% | MEAN CORPUSCULAR HEMOGLOBIN [3]: 25.53 pg | MEAN CORPUSCULAR HEMOGLOBIN CONCENTRATION [3]: 39.4 G/DL | MEAN CORPUSCULAR VOLUME [3]: 64.8 fL | MONOCYTE [3]: 0.33% | NEUTROPHIL [3]: 8% | NUCLEATED RED BLOOD CELLS [3]: 0 /100WBC | PLATELET COUNT [3]: 1090.67 x10E3/uL | ALANINE AMINOTRANSFERASE [3]: 33.67 u/L | ALBUMIN [3]: 3.67 G/DL | ALKALINE PHOSPHATASE [3]: 232 u/L | ASPARTATE AMINOTRANSFERASE [3]: 57 u/L | BLOOD UREA NITROGEN [3]: 15.67 mg/dL | CARBON DIOXIDE [3]: 33.67 mmol/L | CHLORIDE [3]: 99 MEQ/L | CHOLESTEROL [3]: 77.67 mg/dL | CREATINE PHOSPHOKINASE [3]: 155 u/L | CREATININE [3]: 0.11 mg/dL | GLUCOSE [3]: 144.67 mg/dL | LACTATE DEHYDROGENASE [3]: 100 u/L | LIPASE [3]: 10 u/L | PHOSPHORUS [3]: 10.2 mg/dL | POTASSIUM [3]: 5.99 MEQ/L | SODIUM [3]: 146.03 MEQ/L | TOTAL BILIRUBIN [3]: 0.17 mg/dL | TOTAL PROTEIN [3]: 5.83 G/DL | URIC ACID [3]: 0.63 mg/dL | ABSOLUTE BASOPHIL [4]: 0 CELLS/uL | ABSOLUTE EOSINOPHIL [4]: 0 CELLS/uL | ABSOLUTE LYMPHOCYTE [4]: 7128 CELLS/uL | ABSOLUTE MONOCYTE [4]: 81 CELLS/uL | ABSOLUTE SEGMENTED NEUTROPHIL [4]: 891 CELLS/uL | BASOPHIL [4]: 0% | EOSINOPHIL [4]: 0% | ERYTHROCYTE COUNT [4]: 5.44 x10E6/uL | HEMATOCRIT [4]: 34.27% | HEMOGLOBIN [4]: 13.2 G/DL | LEUKOCYTE COUNT [4]: 8.1 x10E3/uL | LYMPHOCYTE [4]: 88% | MEAN CORPUSCULAR HEMOGLOBIN [4]: 24.4 pg | MEAN CORPUSCULAR HEMOGLOBIN CONCENTRATION [4]: 38.53 G/DL | MEAN CORPUSCULAR VOLUME [4]: 63.23 fL | MONOCYTE [4]: 1% | NEUTROPHIL [4]: 11% | NUCLEATED RED BLOOD CELLS [4]: 0.33 /100WBC | PLATELET COUNT [4]: 1027 x10E3/uL | ALANINE AMINOTRANSFERASE [4]: 61 u/L | ALBUMIN [4]: 4.03 G/DL | ALKALINE PHOSPHATASE [4]: 377.33 u/L | ASPARTATE AMINOTRANSFERASE [4]: 87.33 u/L | BLOOD UREA NITROGEN [4]: 16 mg/dL | CARBON DIOXIDE [4]: 29.33 mmol/L | CHLORIDE [4]: 101.67 MEQ/L | CHOLESTEROL [4]: 61 mg/dL | CREATINE PHOSPHOKINASE [4]: 188.67 u/L | CREATININE [4]: 0.1 mg/dL | GLUCOSE [4]: 163 mg/dL | LACTATE DEHYDROGENASE [4]: 107.67 u/L | LIPASE [4]: 8.33 u/L | PHOSPHORUS [4]: 9.57 mg/dL | POTASSIUM [4]: 5.88 MEQ/L | SODIUM [4]: 147.5 MEQ/L | TOTAL BILIRUBIN [4]: 0.17 mg/dL | TOTAL PROTEIN [4]: 5.97 G/DL | URIC ACID [4]: 0.63 mg/dL | ABSOLUTE BASOPHIL [5]: 0 CELLS/uL | ABSOLUTE EOSINOPHIL [5]: 0 CELLS/uL | ABSOLUTE LYMPHOCYTE [5]: 7975.33 CELLS/uL | ABSOLUTE MONOCYTE [5]: 0 CELLS/uL | ABSOLUTE SEGMENTED NEUTROPHIL [5]: 658 CELLS/uL | BASOPHIL [5]: 0% | EOSINOPHIL [5]: 0% | ERYTHROCYTE COUNT [5]: 5.39 x10E6/uL | HEMATOCRIT [5]: 34.73% | HEMOGLOBIN [5]: 14 G/DL | LEUKOCYTE COUNT [5]: 8.63 x10E3/uL | LYMPHOCYTE [5]: 92% | MEAN CORPUSCULAR HEMOGLOBIN [5]: 26 pg | MEAN CORPUSCULAR HEMOGLOBIN CONCENTRATION [5]: 40.3 G/DL | MEAN CORPUSCULAR VOLUME [5]: 64.5 fL | MONOCYTE [5]: 0% | NEUTROPHIL [5]: 8% | NUCLEATED RED BLOOD CELLS [5]: 0.33 /100WBC | PLATELET COUNT [5]: 629.67 x10E3/uL | ALANINE AMINOTRANSFERASE [5]: 49.67 u/L | ALBUMIN [5]: 4.27 G/DL | ALKALINE PHOSPHATASE [5]: 363.67 u/L | ASPARTATE AMINOTRANSFERASE [5]: 76 u/L | BLOOD UREA NITROGEN [5]: 14.33 mg/dL | CARBON DIOXIDE [5]: 32 mmol/L | CHLORIDE [5]: 98.67 MEQ/L | CHOLESTEROL [5]: 77 mg/dL | CREATINE PHOSPHOKINASE [5]: 203.33 u/L | CREATININE [5]: 0.13 mg/dL | GLUCOSE [5]: 145.33 mg/dL | LACTATE DEHYDROGENASE [5]: 120 u/L | LIPASE [5]: 9.33 u/L | PHOSPHORUS [5]: 11.67 mg/dL | POTASSIUM [5]: 6.39 MEQ/L | SODIUM [5]: 144.5 MEQ/L | TOTAL BILIRUBIN [5]: 0.2 mg/dL | TOTAL PROTEIN [5]: 6.3 G/DL | URIC ACID [5]: 0.87 mg/dL
